The test deals with human foetal foreskin fibroblasts (HFFF2). Kind of test: Responsiveness of the in1360 genome to Trichostatin A: β-galactosidase activity in infected HFFF2 cells. Format: cell-based. How it is done: Trichostatin A (TSA) is an agent that inhibits deacetylases. When it is added to cells, histones and other proteins involved in transcriptions become hyperacetylated, because they are not deacetylated. This frequently results in activation of gene expression. In the case of HSV-1 mutants, the genome is not responsive to TSA once the quiescent state has been established. Monolayers of HFFF2 cells were infected with in1360 and maintained at 38.5° C. At 8 days after infection, cells were either untreated or treated with 660 nM TSA. After maintenance at 38.5° C. for a further 2 days, extracts were made and β-galactosidase activities were measured. The extracts from untreated cells gave a value of 121 units (range 113-129), whereas extracts from TSA-treated cells gave a value of 806 unites (range 739-873), a stimulation of 6.7-fold.

As for `CC(/C=C/C(=O)NO)=C\[C@@H](C)C(=O)c1ccc(N(C)C)cc1` [TSA, Trichostatin A], the “β-galactosidase activity, extracts from TSA-treated cells” value (660 nM TSA added 8 days after infection, a further 2 days at 38.5° C., range 739-873) is 806 unites. Moreover, the “effect of TSA on X-gal stained cells (in words)” value (660 nM TSA for 2 days, 10 days after infection) is “increased the number of positive cells and the intensity of straining”. Moreover, the “stimulation of β-galactosidase activity by TSA” value (660 nM TSA versus untreated) is 6.7 fold.

(Values after patent publication US20040248300A1, “Enhanced gene expression using vectors” (priority 2001, published 2004).)
